In patent publication US5919635A (ZymoGenetics, Inc., priority 1995, dated 1999):
One block for each molecule: values may come before it. No end group written: not given here.

How the values were obtained:
[1] = tested on: CRE-luciferase (KZ6) in BHK570 cells; test: Luciferase assay response to forskolin of KZ6-transfected BHK570 clone BHK/KZ6-19-46; format: cell-based
Procedure: Plasmid KZ6 was transfected into BHK570 cells (deposited with the American Type Culture Collection under Accession No. 10314) using the calcium phosphate precipitation method essentially as described by Graham and Van der Eb (Virology 52:456, 1973, which is incorporated by reference herein in its entirety). The transfected cells were grown in growth medium (Dulbecco's modified Eagle's medium (DMEM) containing 10% fetal calf serum, 1× PSN antibiotic mix (GIBCO-BRL), and 2.0 mM L-glutamine). After a few days in non-selective growth medium, the growth medium was replaced with G418 selection medium (growth medium containing 500 μg/ml of G418). The cells were then allowed to grow to confluency after which they are trypsinized and plated at limiting dilution into the wells of 96-well plates. The cells were grown for one to two weeks in G418 selection media. Clones from wells containing single colonies were assayed for the ability to respond to forskolin in the luciferase assay described below. Forskolin elevates the cellular cAMP level and thus the associated cAMP-dependent biological response pathways in a receptor-independent manner.
(§1) Following induction, the medium was removed, and the wells were washed once with 200 μl/well PBS. […] The fold induction of luciferase for each agonist was calculated as follows: [formula]

isolated human islets = test: Insulin secretory function of isolated human pancreatic islets after perfusion; format: cell-based
Procedure: Islet cells were isolated from human pancreata obtained from organ transplant donors for whom a matched recipient was not available. After in situ perfusion with cold UW solution (Du Pont, Boston, Mass.), each pancreas was carefully excised, the pancreatic duct cannulated, and 4 mg/ml collagenase solution (Type V, Sigma, St. Louis, Mo.) infused at a constant rate, first at 4° C. and then 39° C. The gland was teased apart, and liberated fragments were washed by centrifugation, triturated through needles of decreasing caliber, and purified by discontinuous Ficoll density centrifugation (Warnock, Diabetes 35(Suppl. 1):136-139, 1989). Material harvested from the upper interfaces was pooled and counted after a determination of islet purity by dithiazone staining. Islets used in library construction were greater than 65% pure, while islets used in Northern blots were greater than 40% pure. The average islet diameter was 175 μm.

rat glucagon receptor = target: T1, rat glucagon receptor (Rattus norvegicus, UniProt P30082); test: CRE-luciferase induction in pLJ4 transfectant clone KZ6/rGR-DHFR-2; format: cell-based; conditions: listed 200 nM GLP, 20 nM VIP, 100 nM CT, 4 hours at 37° C.
T1 construct: pLJ4 contained an approximately 2 kb insert encoding a 485 amino acid protein; expressed in transfected cells; host or cells: BHK/KZ6-19-46 (BHK570 with CRE-luciferase plasmid KZ6), clone KZ6/rGR-DHFR-2
Procedure: D. Luciferase and Adenylate Cyclase Activity Assays on Whole Cells
BHK/KZ6-19-46 cells were co-transfected with pLJ4 and pLJ1 or with pZCEP and pLJ1 (pZCEP transfectants were used as negative controls) as described above using calcium phosphate-mediated transfection. Transfectants were selected in 250 nM methotrexate as described previously.
Transfectants were assayed in triplicate for the induction of the CRE-luciferase response by selected agonists. Six random pLJ4 transfectants were assayed, and random pZCEP transfectants were assayed (negative controls). Microtiter assay plates were set up such that each well contained 2×10^4 cells in 100 μl of selection medium, and the cells were grown overnight. The agonists were prepared in selection medium, at the 2× final assay concentration listed:
Induction was initiated by the addition of 100 μl for each 2× solution in triplicate sample wells. Uninduced levels were determined in triplicate wells to which 100 μl of DMEM containing 10% fetal calf serum was added. The plates were incubated for four hours at 37° C., 5% CO2 to allow induction of luciferase production.
as §1

[2] = target: Rat Glucagon Receptor (pLJ4) in COS-7 cells (Rattus norvegicus, UniProt P30082); test: cAMP accumulation (Amersham SPA kit) in COS-7 cells transfected with pLJ4; format: cell-based; conditions: 100 nM to 1000 nM; pLJ4 transfectants
[3] = target: T2, cloned receptor (rat glucagon receptor, pLJ4) (Rattus norvegicus, UniProt P30082); test: Competition binding / Scatchard analysis with ^125 I-glucagon on membranes of pLJ4 BHK transfectants; conditions: micromolar amounts (Table 7: 1 μM glucagon and des-His^1 [Glu^9]glucagon amide)
T2 construct: pLJ4 contained an approximately 2 kb insert encoding a 485 amino acid protein; expressed in transfected cells; host or cells: BHK570
Procedure: Membranes from the pLJ4 BHK transfectants were compared with rat liver membrane preparations for the ability to bind ^125 I-glucagon. Membranes were prepared essentially described by Rodbell et al. (J. Biol Chem. 246:1861-1871, 1971, which is incorporated by reference herein in its entirety). Two batches of liver membranes were each prepared from approximately 80 gm of liver from 12 to 16 decapitated young female rats. The livers were removed quickly and placed into an iced beaker. The livers were separated into ten-gram portions. The portions were minced with scissors, and connective tissue was removed during the mincing procedure. The portions were separately homogenized in a Dounce homogenizer. To each portion, 25 ml of Medium (Table 2) was added to the minced tissue in the homogenizer, and the tissue was homogenized in an ice bucket with eight vigorous strokes of the loose pestle. After homogenization, the homogenates were pooled into 450 ml of cold Medium (Table 2). The pooled homogenates were stirred for 3 minutes and filtered through two layers of cheesecloth followed by filtering through four layers of cheesecloth. The homogenates were then centrifuged for 30 minutes at 1500×g at 4° C. The supernatants were discarded, and the pellets were pooled into a clean Dounce homogenizer. The pellets were resuspended with three gentle strokes of the loose pestle. The resuspended pellets were decanted into a 250 ml graduate containing 62 ml of 69% Sucrose Solution (Table 2). Distilled water was added to a final volume of 110 ml, and the mixture was thoroughly mixed and kept cold. The concentration of the solution was adjusted to 44.0%+/-0.1% using 69% sucrose or water as measured by a refractometer (Bausch & Lomb, Rochester, N.Y.). […]
To each tube 100 μl of 2× binding buffer; 20 μl of ^125 I-glucagon (Amersham); 20 μl of 1 mM NaHCO3; 20 μl 10 mM HOAc, 0.5% BSA (Novo Nordisk N/A, Bagsvaerd, Denmark); and 40 μl of distilled water were added. […] The supernatants from each sample were aspirated, and the pellets were counted. […]

[4] = target: Human Glucagon Receptor (pLJ6') (Homo sapiens, UniProt P47871); test: cAMP accumulation in pLJ6'-transfected cells; format: cell-based
Procedure: The related peptides secretin, VIP, PTH, GLP and calcitonin were each added to transfectants at concentrations of 100 nM to 1000 nM and assayed for their ability to induce cAMP levels.
Transfected cells were selected in the presence of G418 until single colonies were visible. Single colonies were cloned using cloning cylinders.
The PLJ6'-transfected cells were assayed for cAMP accumulation essentially as described in Example 8.C.

Chain of Rat Glucagon Receptor (pLJ4) in COS-7 cells (P30082 27-485): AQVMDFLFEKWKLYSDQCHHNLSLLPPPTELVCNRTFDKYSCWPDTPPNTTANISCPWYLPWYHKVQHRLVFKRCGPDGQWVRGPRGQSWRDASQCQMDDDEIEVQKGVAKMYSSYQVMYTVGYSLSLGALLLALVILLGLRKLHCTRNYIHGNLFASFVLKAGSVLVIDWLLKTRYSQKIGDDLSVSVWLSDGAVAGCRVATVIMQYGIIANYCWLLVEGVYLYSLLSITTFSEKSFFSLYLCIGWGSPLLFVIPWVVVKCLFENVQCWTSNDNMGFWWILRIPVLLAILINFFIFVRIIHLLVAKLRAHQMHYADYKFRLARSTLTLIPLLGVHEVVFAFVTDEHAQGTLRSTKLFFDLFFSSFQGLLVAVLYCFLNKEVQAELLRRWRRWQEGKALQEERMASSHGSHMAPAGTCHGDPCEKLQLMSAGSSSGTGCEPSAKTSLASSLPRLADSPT
Chain of Human Glucagon Receptor (pLJ6') (P47871 26-477): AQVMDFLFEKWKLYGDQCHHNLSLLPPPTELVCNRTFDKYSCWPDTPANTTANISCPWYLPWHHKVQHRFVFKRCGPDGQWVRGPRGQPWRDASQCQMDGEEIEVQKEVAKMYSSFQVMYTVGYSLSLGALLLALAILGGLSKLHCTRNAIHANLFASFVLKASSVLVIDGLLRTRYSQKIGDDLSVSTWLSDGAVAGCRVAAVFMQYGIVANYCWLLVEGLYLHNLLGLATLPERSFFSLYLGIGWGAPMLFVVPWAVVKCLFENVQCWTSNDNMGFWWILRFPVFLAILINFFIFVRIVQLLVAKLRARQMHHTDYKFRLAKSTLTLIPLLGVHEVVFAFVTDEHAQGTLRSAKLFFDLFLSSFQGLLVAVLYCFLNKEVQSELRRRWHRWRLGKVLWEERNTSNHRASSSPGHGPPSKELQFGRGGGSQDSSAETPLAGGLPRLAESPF
T2 sequence (P30082 27-485): as the sequence (P30082 27-485) above
T1 sequence (P30082 27-485): as above

Molecule: C=C[C@@]1(C)CC(=O)[C@]2(O)[C@@]3(C)[C@@H](O)CCC(C)(C)[C@@H]3[C@H](O)[C@H](OC(C)=O)[C@@]2(C)O1 [forskolin]
- ability to respond to forskolin in the luciferase assay [1]: capable of responding to forskolin

Molecule: O=C[C@H](O)[C@@H](O)[C@H](O)[C@H](O)CO [glucose]
- insulin secretory function (in words) (isolated human islets): both first and second phase insulin secretory function

Molecule: CC(C)Cn1c(=O)n(C)c(=O)c2[nH]cnc21 [isobutylmethylxanthine (IBMX), isobutylmethylxanthine]
- insulin secretory function (in words) (isolated human islets): both first and second phase insulin secretory function

- induction of luciferase (in words) (rat glucagon receptor): not induced
Molecule: calcitonin
- ability to induce cAMP levels [2]: none of the related peptides were capable of inducing significant increases in cAMP levels

Molecule: des-His^1 [Glu^9 ]glucagon amide
- ability to compete for ^125 I-glucagon binding [3]: able to compete

- cAMP accumulation (in words) [4]: no increased cAMP accumulation
Molecule: secretin: porcine secretin (Sigma) (HSDGTFTSELSRLRDSARLQRLLQGLV; ends and bridges not checked; UniProt P63298 33-59, looked up)
- ability to induce cAMP levels [2]: none of the related peptides were capable of inducing significant increases in cAMP levels

B1: PTH: bovine parathyroid hormone (PTH) (Sigma) (peptide, UniProt P01268 32-115, looked up)
Parathyroid hormone: AVSEIQFMHNLGKHLSSMERVEWLRKKLQDVHNFVALGASIAYRDGSSQRPRKKEDNVLVESHQKSLGEADKADVDVLIKAKPQ
modifications: Parathyroid hormone
- ability to induce cAMP levels [2]: none of the related peptides were capable of inducing significant increases in cAMP levels
